Results as given in ChEMBL document CHEMBL5523744, “Recent Advances in Targeted Cancer Therapy: Are PDCs the Next Generation of ADCs?” (J Med Chem, 2024).
pIC50: −log10 of the molar value.

System: DNA
Assay: Induction of DNA (unknown origin) minor groove alkylation
Format: nucleic-acid assay, Homo sapiens

pIC50: 10.40
SMILES: CC(C)(C)OC(=O)Nc1ccc(C(=O)Nc2ccc3cc(C(=O)N4C[C@@H](CCl)c5c4cc(O)c4ccccc54)[nH]c3c2)cc1
